Experimental data published in ChEMBL document CHEMBL3044707, “Synthesis of some new glutamine linked 2,3-disubstituted quinazolinone derivatives as potent antimicrobial and antioxidant agents” (Med Chem Res, 2013).
≈ marks a conversion by molar mass, not a printed value.

Columns and labels:
Type in all cases: functional
Pseudomonas aeruginosa [1] = assay: Antimicrobial activity against Pseudomonas aeruginosa NCIM 5029 assessed as diameter of growth inhibition zone at 100 ug/ml after 24 hr by paper disk diffusion method; settings: NCIM 5029, 24 h, read-out: DIZ
Staphylococcus aureus [2] = assay: Antimicrobial activity against Staphylococcus aureus NCIM 5021 assessed as growth inhibition by agar streak dilution method
Aspergillus flavus [3] = assay: Antimicrobial activity against Aspergillus flavus NCIM 524 assessed as diameter of growth inhibition zone at 100 ug/ml after 48 hr by paper disk diffusion method; settings: NCIM 524, 48 h, read-out: DIZ
[4] = tested on: Radical scavenging activity; assay: Antioxidant activity assessed as DPPH radical scavenging activity by visible spectrophotometric analysis
Escherichia coli [5] = assay: Antimicrobial activity against Escherichia coli NCIM 2574 assessed as growth inhibition by agar streak dilution method
Aspergillus flavus [6] = assay: Antimicrobial activity against Aspergillus flavus NCIM 524 assessed as growth inhibition by agar streak dilution method
[7] = Antioxidant activity assessed as inhibition of Fe3+/ascorbic acid-induced hydroxyl radical production-mediated 2-deoxyribose degradation after 1 hr
Bacillus subtilis [8] = assay: Antimicrobial activity against Bacillus subtilis NCIM 2999 assessed as diameter of growth inhibition zone at 100 ug/ml after 24 hr by paper disk diffusion method; settings: NCIM 2999, 24 h, read-out: DIZ
Candida albicans [9] = assay: Antimicrobial activity against Candida albicans NCIM 3102 assessed as growth inhibition by agar streak dilution method
Candida albicans [10] = assay: Antimicrobial activity against Candida albicans NCIM 3102 assessed as diameter of growth inhibition zone at 100 ug/ml after 48 hr by paper disk diffusion method; settings: NCIM 3102, 48 h, read-out: DIZ
Pseudomonas aeruginosa [11] = assay: Antimicrobial activity against Pseudomonas aeruginosa NCIM 5029 assessed as growth inhibition by agar streak dilution method
Escherichia coli [12] = assay: Antimicrobial activity against Escherichia coli NCIM 2574 assessed as diameter of growth inhibition zone at 100 ug/ml after 24 hr by paper disk diffusion method; settings: NCIM 2574, 24 h, read-out: DIZ
Bacillus subtilis [13] = assay: Antimicrobial activity against Bacillus subtilis NCIM 2999 assessed as growth inhibition by agar streak dilution method
[14] = Antioxidant activity assessed as inhibition of NO radical production from sodium nitroprusside after 150 min by Griess reagent analysis
Staphylococcus aureus [15] = assay: Antimicrobial activity against Staphylococcus aureus NCIM 5021 assessed as diameter of growth inhibition zone at 100 ug/ml after 24 hr by paper disk diffusion method; settings: NCIM 5021, 24 h, read-out: DIZ
[16] = Antioxidant activity assessed as inhibition of xanthine-xanthine oxidase generated superoxide anion radical-mediated NBT reduction by spectrophotometric analysis
Bacillus subtilis [17] = assay: Antimicrobial activity against Bacillus subtilis NCIM 2999 assessed as diameter of growth inhibition zone at 10 ug/disk after 24 hr by paper disk diffusion method; settings: NCIM 2999, 24 h, read-out: DIZ
Pseudomonas aeruginosa [18] = assay: Antimicrobial activity against Pseudomonas aeruginosa NCIM 5029 assessed as diameter of growth inhibition zone at 10 ug/disk after 24 hr by paper disk diffusion method; settings: NCIM 5029, 24 h, read-out: DIZ
Staphylococcus aureus [19] = assay: Antimicrobial activity against Staphylococcus aureus NCIM 5021 assessed as diameter of growth inhibition zone at 10 ug/disk after 24 hr by paper disk diffusion method; settings: NCIM 5021, 24 h, read-out: DIZ
Escherichia coli [20] = assay: Antimicrobial activity against Escherichia coli NCIM 2574 assessed as diameter of growth inhibition zone at 10 ug/disk after 24 hr by paper disk diffusion method; settings: NCIM 2574, 24 h, read-out: DIZ
Candida albicans [21] = assay: Antimicrobial activity against Candida albicans NCIM 3102 assessed as diameter of growth inhibition zone at 10 ug/disk after 48 hr by paper disk diffusion method; settings: NCIM 3102, 48 h, read-out: DIZ
Aspergillus flavus [22] = assay: Antimicrobial activity against Aspergillus flavus NCIM 524 assessed as diameter of growth inhibition zone at 10 ug/disk after 48 hr by paper disk diffusion method; settings: NCIM 524, 48 h, read-out: DIZ

Structure (SMILES) | zone of inhibition at 100 µg/mL (Pseudomonas aeruginosa [1]) [mm] | MIC (Staphylococcus aureus [2]) [µg/mL] | zone of inhibition at 100 µg/mL (Aspergillus flavus [3]) [mm] | IC50 [4] [µg/mL] | MIC (Escherichia coli [5]) [µg/mL] | MIC (Aspergillus flavus [6]) [µg/mL] | IC50 [7] [µg/mL] | zone of inhibition at 100 µg/mL (Bacillus subtilis [8]) [mm] | MIC (Candida albicans [9]) [µg/mL] | zone of inhibition at 100 µg/mL (Candida albicans [10]) [mm] | MIC (Pseudomonas aeruginosa [11]) [µg/mL] | zone of inhibition at 100 µg/mL (Escherichia coli [12]) [mm] | MIC (Bacillus subtilis [13]) [µg/mL] | IC50 [14] [µg/mL] | zone of inhibition at 100 µg/mL (Staphylococcus aureus [15]) [mm] | IC50 [16] [µg/mL] | other results
NC(CCC(=O)n1c(-c2ccc([N+](=O)[O-])cc2)nc2ccccc2c1=O)C(=O)O (stereo not drawn) | 11 | 9.6 (≈ 24.2 µM) | 13.6 | 36.4 (≈ 91.8 µM) | 25 (≈ 63.1 µM) | 12.5 (≈ 31.5 µM) | 39 (≈ 98.4 µM) | 16 | 10 (≈ 25.2 µM) | 14.1 | 25 (≈ 63.1 µM) | 9 | 12.5 (≈ 31.5 µM) | 49 (≈ 124 µM) | 14 | – | –
COc1ccc(-c2nc3ccccc3c(=O)n2C(=O)CCC(N)C(=O)O)cc1 (stereo not drawn) | 13 | 30 (≈ 78.7 µM) | 14 | 18.4 (≈ 48.2 µM) | 20 (≈ 52.4 µM) | 15 (≈ 39.3 µM) | 23.4 (≈ 61.4 µM) | 10 | 25 (≈ 65.6 µM) | 10 | 25 (≈ 65.6 µM) | 11 | 50 (≈ 131 µM) | 20.1 (≈ 52.7 µM) | 14 | 20.1 (≈ 52.7 µM) | –
CN[C@@H]1[C@H](O[C@H]2[C@H](O[C@H]3[C@H](O)[C@@H](O)[C@H](N=C(N)N)[C@@H](O)[C@@H]3N=C(N)N)O[C@@H](C)[C@]2(O)C=O)O[C@@H](CO)[C@H](O)[C@H]1O [STREPTOMYCIN] | – | 5 (≈ 8.6 µM) | – | – | 5 (≈ 8.6 µM) | – | – | – | – | – | 5 (≈ 8.6 µM) | – | 5 (≈ 8.6 µM) | – | – | – | zone of inhibition at 10 µg/disc (Bacillus subtilis [17]): 13.4 mm; zone of inhibition at 10 µg/disc (Pseudomonas aeruginosa [18]): 14 mm; zone of inhibition at 10 µg/disc (Staphylococcus aureus [19]): 14.1 mm; zone of inhibition at 10 µg/disc (Escherichia coli [20]): 16.5 mm
NC(CCC(=O)n1c(-c2cc(F)ccc2F)nc2ccccc2c1=O)C(=O)O (stereo not drawn) | 17 | 12.5 (≈ 32.3 µM) | 10.9 | 34.9 (≈ 90.1 µM) | 30 (≈ 77.5 µM) | 15 (≈ 38.7 µM) | 41.8 (≈ 108 µM) | 12 | 10 (≈ 25.8 µM) | 11.4 | 35 (≈ 90.4 µM) | 11 | 12.5 (≈ 32.3 µM) | – | 14 | 50.8 (≈ 131 µM) | –
NC(CCC(=O)n1c(Cc2ccccc2)nc2ccccc2c1=O)C(=O)O (stereo not drawn) | 11 | 50 (≈ 137 µM) | 10.2 | 26.6 (≈ 72.8 µM) | > 100 | 75 (≈ 205 µM) | 29.8 (≈ 81.6 µM) | 7 | 100 (≈ 274 µM) | 14 | > 100 | 11 | 50 (≈ 137 µM) | 36.2 (≈ 99.1 µM) | 10 | 31.6 (≈ 86.5 µM) | –
NC(CCC(=O)n1c(OCc2ccccc2Cl)nc2ccccc2c1=O)C(=O)O (stereo not drawn) | 13 | 30 (≈ 72.1 µM) | 11 | 26.1 (≈ 62.8 µM) | 50 (≈ 120 µM) | 40 (≈ 96.2 µM) | 27.7 (≈ 66.6 µM) | 14 | 25 (≈ 60.1 µM) | 13.7 | 50 (≈ 120 µM) | 10 | 50 (≈ 120 µM) | 38.7 (≈ 93.1 µM) | 12 | 31.4 (≈ 75.5 µM) | –
Cc1ccccc1-c1nc2ccccc2c(=O)n1C(=O)CCC(N)C(=O)O (stereo not drawn) | 11 | 50 (≈ 137 µM) | 15 | 24.9 (≈ 68.1 µM) | 50 (≈ 137 µM) | 25 (≈ 68.4 µM) | 30.4 (≈ 83.2 µM) | 12 | 25 (≈ 68.4 µM) | 12 | 30 (≈ 82.1 µM) | 10 | 30 (≈ 82.1 µM) | 29.1 (≈ 79.6 µM) | 11 | – | –
NC(CCC(=O)n1c(-c2ccccc2)nc2ccccc2c1=O)C(=O)O (stereo not drawn) | 12 | 45 (≈ 128 µM) | 10 | 29.7 (≈ 84.5 µM) | 50 (≈ 142 µM) | 25 (≈ 71.2 µM) | 31.2 (≈ 88.8 µM) | 11 | 30 (≈ 85.4 µM) | 14 | 75 (≈ 213 µM) | 15 | 50 (≈ 142 µM) | 36 (≈ 102 µM) | 11 | – | –
NC(CCC(=O)n1c(-c2ccc(Cl)cc2)nc2ccccc2c1=O)C(=O)O (stereo not drawn) | 12 | 10 (≈ 25.9 µM) | 12.1 | 37.1 (≈ 96.2 µM) | 15 (≈ 38.9 µM) | 15 (≈ 38.9 µM) | 49 (≈ 127 µM) | 12.7 | 12 (≈ 31.1 µM) | 13.6 | 15 (≈ 38.9 µM) | 11.5 | 11.2 (≈ 29 µM) | 41.8 (≈ 108 µM) | 13 | 41.8 (≈ 108 µM) | –
O=C1O[C@H]([C@@H](O)CO)C(O)=C1O [ASCORBIC ACID] | – | – | – | 12.6 (≈ 71.5 µM) | – | – | – | – | – | – | – | – | – | – | – | – | –
Nc1ccc(-c2nc3ccccc3c(=O)n2C(=O)CCC(N)C(=O)O)cc1 (stereo not drawn) | 16 | 25 (≈ 68.2 µM) | 11 | 17.5 (≈ 47.8 µM) | 50 (≈ 136 µM) | 50 (≈ 136 µM) | 18 (≈ 49.1 µM) | 13 | 50 (≈ 136 µM) | 12.5 | 50 (≈ 136 µM) | 15 | 30 (≈ 81.9 µM) | 19.4 (≈ 53 µM) | 10 | – | –
OC(Cn1cncn1)(Cn1cncn1)c1ccc(F)cc1F [FLUCONAZOLE] | – | – | – | – | – | 5 (≈ 16.3 µM) | – | – | 5 (≈ 16.3 µM) | – | – | – | – | – | – | – | zone of inhibition at 10 µg/disc (Candida albicans [21]): 16 mm; zone of inhibition at 10 µg/disc (Aspergillus flavus [22]): 19 mm
NC(CCC(=O)n1c(-c2cc(F)cc(F)c2)nc2ccccc2c1=O)C(=O)O (stereo not drawn) | 14 | 13 (≈ 33.6 µM) | 10.4 | 27.4 (≈ 70.7 µM) | 50 (≈ 129 µM) | 25 (≈ 64.5 µM) | 38.1 (≈ 98.4 µM) | 16 | 15 (≈ 38.7 µM) | 11 | 25 (≈ 64.5 µM) | 12 | 15 (≈ 38.7 µM) | – | 11 | 45.7 (≈ 118 µM) | –
NC(CCC(=O)n1c(-c2ccc(O)cc2)nc2ccccc2c1=O)C(=O)O (stereo not drawn) | 13 | 25 (≈ 68.1 µM) | 15 | 14.3 (≈ 38.9 µM) | 50 (≈ 136 µM) | 40 (≈ 109 µM) | 17.8 (≈ 48.5 µM) | 9 | 40 (≈ 109 µM) | 9 | 50 (≈ 136 µM) | 15 | 25 (≈ 68.1 µM) | 15.2 (≈ 41.4 µM) | 13 | 15.2 (≈ 41.4 µM) | –
NC(CCC(=O)n1c(-c2ccc(F)c(F)c2F)nc2ccccc2c1=O)C(=O)O (stereo not drawn) | 14.8 | 8 (≈ 19.7 µM) | 14.4 | 29.7 (≈ 73.3 µM) | 12 (≈ 29.6 µM) | 15 (≈ 37 µM) | 55.1 (≈ 136 µM) | 13.5 | 10 (≈ 24.7 µM) | 13.6 | 10 (≈ 24.7 µM) | 12.7 | 8 (≈ 19.7 µM) | – | 13.2 | 48.2 (≈ 119 µM) | –
